Measured values taken from patent publication US20240158370A1, “CK1 alpha AND DUAL CK1 alpha / GSPT1 DEGRADING COMPOUNDS” (Innovo Therapeutics, Inc., priority 2022, published 2024).

What was measured:
[1] = target: GSPT1 (Homo sapiens, UniProt P15170+Q96SW2); assay: HiBiT degradation assay, GSPT1, Procedure A; assay type: cell-based; design: HiBit-GSPT1 KI HEK293(LgBit) Cells; host or cells: HEK293(LgBit) knock-in cells; conditions: six hours incubation
How it was run: (§1)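 Cells in DMEM + 10% FBS were treated with compound in a ten-point dose response from 10 μM to 0.005 μM (0.1% DMSO) for six hours at 37° C. Lysis with Nano-Glo HiBiT detection reagent followed, with luminescence read. DC50 and Ymin came from a 4-parameter fit.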

[2] = target: T1, CK1α (Homo sapiens, UniProt P48729+Q96SW2); assay: HiBiT degradation assay, CK1α, Procedure A; assay type: cell-based; conditions: six hours incubation
T1 construct: CSNK1A1-HiBit KI HEK293(LgBit) Cells; host or cells: HEK293(LgBit) knock-in cells
T1 sequence (P48729 whole entry): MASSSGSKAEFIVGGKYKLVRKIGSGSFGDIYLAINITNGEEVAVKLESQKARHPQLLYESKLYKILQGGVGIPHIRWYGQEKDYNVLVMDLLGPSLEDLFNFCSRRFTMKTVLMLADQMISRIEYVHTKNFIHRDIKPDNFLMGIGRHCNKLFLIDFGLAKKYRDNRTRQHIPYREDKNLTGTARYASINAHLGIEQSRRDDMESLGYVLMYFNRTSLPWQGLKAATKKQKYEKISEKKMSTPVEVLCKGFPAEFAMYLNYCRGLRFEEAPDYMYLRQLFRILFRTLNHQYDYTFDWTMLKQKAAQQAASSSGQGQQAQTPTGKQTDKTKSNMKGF
T1 sequence (Q96SW2 whole entry): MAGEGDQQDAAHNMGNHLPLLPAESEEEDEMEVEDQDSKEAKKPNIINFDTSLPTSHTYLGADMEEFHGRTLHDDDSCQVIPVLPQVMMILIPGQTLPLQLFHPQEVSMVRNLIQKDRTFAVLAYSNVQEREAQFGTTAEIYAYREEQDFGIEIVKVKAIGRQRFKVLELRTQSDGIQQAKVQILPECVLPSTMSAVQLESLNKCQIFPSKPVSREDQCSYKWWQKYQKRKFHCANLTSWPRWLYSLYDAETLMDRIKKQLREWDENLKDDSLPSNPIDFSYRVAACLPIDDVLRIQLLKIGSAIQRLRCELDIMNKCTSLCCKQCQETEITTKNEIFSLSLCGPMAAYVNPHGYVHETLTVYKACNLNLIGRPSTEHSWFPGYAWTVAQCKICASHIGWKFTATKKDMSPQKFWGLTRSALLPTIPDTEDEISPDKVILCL
T1 sequence (Q16531 whole entry partner): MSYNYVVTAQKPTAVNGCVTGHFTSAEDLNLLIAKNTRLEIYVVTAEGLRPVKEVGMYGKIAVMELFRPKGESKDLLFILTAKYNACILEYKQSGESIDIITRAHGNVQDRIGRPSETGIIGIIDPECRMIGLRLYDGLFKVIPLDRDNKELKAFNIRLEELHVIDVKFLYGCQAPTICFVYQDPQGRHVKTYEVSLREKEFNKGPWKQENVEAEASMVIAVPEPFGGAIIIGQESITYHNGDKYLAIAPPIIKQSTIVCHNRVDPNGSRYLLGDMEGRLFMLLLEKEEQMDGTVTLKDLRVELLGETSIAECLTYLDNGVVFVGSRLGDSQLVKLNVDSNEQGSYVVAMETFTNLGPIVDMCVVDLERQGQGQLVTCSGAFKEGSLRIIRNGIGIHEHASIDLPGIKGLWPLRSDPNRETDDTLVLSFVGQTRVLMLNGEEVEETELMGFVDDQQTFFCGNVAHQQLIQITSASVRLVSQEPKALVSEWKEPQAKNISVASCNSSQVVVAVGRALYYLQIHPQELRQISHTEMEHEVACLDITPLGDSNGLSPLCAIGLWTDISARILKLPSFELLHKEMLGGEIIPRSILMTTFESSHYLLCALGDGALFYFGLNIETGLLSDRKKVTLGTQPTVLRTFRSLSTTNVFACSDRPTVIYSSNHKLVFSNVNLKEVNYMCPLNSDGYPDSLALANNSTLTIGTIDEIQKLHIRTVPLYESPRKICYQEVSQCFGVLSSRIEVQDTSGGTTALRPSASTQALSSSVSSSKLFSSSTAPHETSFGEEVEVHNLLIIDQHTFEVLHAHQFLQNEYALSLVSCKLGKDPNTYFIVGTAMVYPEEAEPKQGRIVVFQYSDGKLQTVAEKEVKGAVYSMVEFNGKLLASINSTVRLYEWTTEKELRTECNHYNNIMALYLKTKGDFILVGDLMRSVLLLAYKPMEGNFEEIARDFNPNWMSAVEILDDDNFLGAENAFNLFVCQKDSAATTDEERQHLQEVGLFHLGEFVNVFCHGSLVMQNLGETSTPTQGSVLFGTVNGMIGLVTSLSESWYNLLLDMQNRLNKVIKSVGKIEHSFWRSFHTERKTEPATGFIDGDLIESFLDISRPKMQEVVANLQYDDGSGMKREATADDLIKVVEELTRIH
How it was run: as §1

GSPT1, sequence (P15170 whole entry): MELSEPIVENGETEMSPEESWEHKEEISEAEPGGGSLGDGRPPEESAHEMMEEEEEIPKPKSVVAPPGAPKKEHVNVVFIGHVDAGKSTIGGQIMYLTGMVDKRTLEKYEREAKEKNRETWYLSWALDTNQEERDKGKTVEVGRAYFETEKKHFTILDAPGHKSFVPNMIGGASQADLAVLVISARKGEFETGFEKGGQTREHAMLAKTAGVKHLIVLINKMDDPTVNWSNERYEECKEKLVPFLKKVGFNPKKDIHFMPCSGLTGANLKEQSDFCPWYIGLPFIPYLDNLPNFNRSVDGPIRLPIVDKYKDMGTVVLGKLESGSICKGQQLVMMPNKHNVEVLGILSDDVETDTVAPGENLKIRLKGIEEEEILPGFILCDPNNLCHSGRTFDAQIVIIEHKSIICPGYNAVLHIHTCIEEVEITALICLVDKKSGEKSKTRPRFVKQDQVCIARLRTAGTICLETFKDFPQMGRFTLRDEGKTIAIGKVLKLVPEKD
GSPT1, sequence (Q96SW2 whole entry): as the sequence (Q96SW2 whole entry) above
GSPT1, sequence (Q16531 whole entry partner): as the sequence (Q16531 whole entry partner) above

DC50 [1]	GSPT1 Ymin [1]	CK1α Ymin [2]	DC50 [2]	Structure (SMILES)
≥ 25 nM	F (F = >75-100% remaining)	E (E = >25-75% remaining)	< 25 nM	Cc1cc(-c2c(-c3ccc4c(c3)CN(C3CCC(=O)NC3=O)C4=O)cnn2C)ccc1Cl (stereo not drawn) [Example 99]
≥ 25 nM	F (F = >75-100% remaining)	E (E = >25-75% remaining)	≥ 25 nM	Cn1ncc(-c2ccc3c(c2)CN(C2CCC(=O)NC2=O)C3=O)c1-c1ccc(NC(=O)c2ccccc2)cc1 (stereo not drawn) [Example 100]
≥ 25 nM	F (F = >75-100% remaining)	E (E = >25-75% remaining)	< 25 nM	Cn1ncc(-c2ccc3c(c2)CN(C2CCC(=O)NC2=O)C3=O)c1-c1ccc(-c2ccc(C#N)cc2)cc1 (stereo not drawn) [Example 101]
≥ 25 nM	F (F = >75-100% remaining)	E (E = >25-75% remaining)	≥ 25 nM	Cn1ncc(-c2ccc3c(c2)CN(C2CCC(=O)NC2=O)C3=O)c1-c1ccc(C(=O)NCc2ccccc2)c(Cl)c1 (stereo not drawn) [Example 102]
≥ 25 nM	F (F = >75-100% remaining)	D (D = >10- 25% remaining)	< 25 nM	Cn1ncc(-c2ccc3c(c2)CN(C2CCC(=O)NC2=O)C3=O)c1-c1ccc(-c2cccnc2)cc1 (stereo not drawn) [Example 103]
≥ 25 nM	F (F = >75-100% remaining)	C (C = 0-10% remaining)	< 25 nM	COc1ccc(-c2c(-c3ccc4c(c3)CN(C3CCC(=O)NC3=O)C4=O)cnn2C)cc1F (stereo not drawn) [Example 104]
≥ 25 nM	F (F = >75-100% remaining)	E (E = >25-75% remaining)	< 25 nM	Cn1ncc(-c2ccc3c(c2)CN(C2CCC(=O)NC2=O)C3=O)c1-c1cccc2c1OCC2 (stereo not drawn) [Example 105]
≥ 25 nM	F (F = >75-100% remaining)	E (E = >25-75% remaining)	< 25 nM	Cc1cccc(-c2c(-c3ccc4c(c3)CN(C3CCC(=O)NC3=O)C4=O)cnn2C)c1F (stereo not drawn) [Example 106]
≥ 25 nM	F (F = >75-100% remaining)	E (E = >25-75% remaining)	< 25 nM	COc1c(F)cccc1-c1c(-c2ccc3c(c2)CN(C2CCC(=O)NC2=O)C3=O)cnn1C (stereo not drawn) [Example 107]
≥ 25 nM	F (F = >75-100% remaining)	E (E = >25-75% remaining)	< 25 nM	Cn1ncc(-c2ccc3c(c2)CN(C2CCC(=O)NC2=O)C3=O)c1-c1cccc(F)c1Cl (stereo not drawn) [Example 108]
≥ 25 nM	F (F = >75-100% remaining)	E (E = >25-75% remaining)	< 25 nM	Cc1ccc(-c2c(-c3ccc4c(c3)CN(C3CCC(=O)NC3=O)C4=O)cnn2C)c(C#N)c1 (stereo not drawn) [Example 109]
≥ 25 nM	F (F = >75-100% remaining)	E (E = >25-75% remaining)	< 25 nM	Cn1ncc(-c2ccc3c(c2)CN(C2CCC(=O)NC2=O)C3=O)c1-c1ccc(C2(C#N)CC2)cc1 (stereo not drawn) [Example 110]
≥ 25 nM	F (F = >75-100% remaining)	F (F = >75-100% remaining)	≥ 25 nM	Cn1ncc(-c2ccc3c(c2)CN(C2CCC(=O)NC2=O)C3=O)c1-c1cccc(N2CCCCC2)c1 (stereo not drawn) [Example 111]
≥ 25 nM	F (F = >75-100% remaining)	D (D = >10- 25% remaining)	< 25 nM	Cn1ncc(-c2ccc3c(c2)CN(C2CCC(=O)NC2=O)C3=O)c1-c1ccc(COc2ccccc2)cc1 (stereo not drawn) [Example 112]
≥ 25 nM	F (F = >75-100% remaining)	D (D = >10- 25% remaining)	< 25 nM	COc1ccc(-c2c(-c3ccc4c(c3)CN(C3CCC(=O)NC3=O)C4=O)cnn2C)cc1OCc1ccccc1 (stereo not drawn) [Example 113]
≥ 25 nM	F (F = >75-100% remaining)	E (E = >25-75% remaining)	< 25 nM	Cn1ncc(-c2ccc3c(c2)CN(C2CCC(=O)NC2=O)C3=O)c1-c1cccc2c1CCC2 (stereo not drawn) [Example 114]
≥ 25 nM	F (F = >75-100% remaining)	E (E = >25-75% remaining)	< 25 nM	Cn1ncc(-c2ccc3c(c2)CN(C2CCC(=O)NC2=O)C3=O)c1-c1ccccc1C1CC1 (stereo not drawn) [Example 115]
≥ 25 nM	F (F = >75-100% remaining)	E (E = >25-75% remaining)	≥ 25 nM	Cn1ncc(-c2ccc3c(c2)CN(C2CCC(=O)NC2=O)C3=O)c1C1CC1 (stereo not drawn) [Example 116]
≥ 25 nM	F (F = >75-100% remaining)	C (C = 0-10% remaining)	< 25 nM	Cn1c(C2CC2)nc(-c2ccc3c(c2)CN(C2CCC(=O)NC2=O)C3=O)c1-c1cncnc1 (stereo not drawn) [Example 117, 3-(5-(2-cyclopropyl-1-methyl-5-(pyrimidin-5-yl)-1H-imidazol-4-yl)-1-oxoisoindolin-2-yl)piperidine-2,6-dione]
≥ 25 nM	F (F = >75-100% remaining)	E (E = >25-75% remaining)	≥ 25 nM	O=C1CCC(N2Cc3cc(-c4c[nH]nc4-c4ccccn4)ccc3C2=O)C(=O)N1 (stereo not drawn) [Example 118, 3-(1-oxo-5-(3-(pyridin-2-yl)-1H-pyrazol-4-yl)isoindolin-2-yl)piperidine-2,6-dione]
≥ 25 nM	F (F = >75-100% remaining)	E (E = >25-75% remaining)	≥ 25 nM	Cn1ncc(-c2ccc3c(c2)CN(C2CCC(=O)NC2=O)C3=O)c1-c1ccc(Cl)c(C#N)c1 (stereo not drawn) [Example 119]
≥ 25 nM	F (F = >75-100% remaining)	E (E = >25-75% remaining)	≥ 25 nM	Cn1ncc(-c2ccc3c(c2)CN(C2CCC(=O)NC2=O)C3=O)c1-c1cc(F)ccc1Cl (stereo not drawn) [Example 120]
≥ 25 nM	F (F = >75-100% remaining)	C (C = 0-10% remaining)	≥ 25 nM	CN(C)C(=O)c1ccc(-c2c(-c3ccc4c(c3)CN(C3CCC(=O)NC3=O)C4=O)cnn2C)cc1 (stereo not drawn) [Example 121]
≥ 25 nM	F (F = >75-100% remaining)	E (E = >25-75% remaining)	≥ 25 nM	CNC(=O)c1cccc(-c2c(-c3ccc4c(c3)CN(C3CCC(=O)NC3=O)C4=O)cnn2C)c1 (stereo not drawn) [Example 122]
≥ 25 nM	F (F = >75-100% remaining)	E (E = >25-75% remaining)	< 25 nM	Cn1ncc(-c2ccc3c(c2)CN(C2CCC(=O)NC2=O)C3=O)c1-c1cccc(C#N)c1 (stereo not drawn) [Example 123]
≥ 25 nM	F (F = >75-100% remaining)	C (C = 0-10% remaining)	< 25 nM	Cn1ncc(-c2ccc3c(c2)CN(C2CCC(=O)NC2=O)C3=O)c1-c1ccc(N)cc1 (stereo not drawn) [Example 124]
≥ 25 nM	F (F = >75-100% remaining)	E (E = >25-75% remaining)	< 25 nM	Cc1c(F)cccc1-c1c(-c2ccc3c(c2)CN(C2CCC(=O)NC2=O)C3=O)cnn1C (stereo not drawn) [Example 125]
